According to patent US20040023884A1, “Biologically active peptides from functional domains of bactericidal/permeability-increasing protein and uses thereof” (priority 1993, published 2004):
pKd: −log10 of the molar value. Read-outs that look alike come from different tables or passages of the source. Square brackets hold non-standard residues; d marks the D form. Ends that are not written are not given here. 1Nal = N[C@@H](Cc1cccc2ccccc12)C(=O)O

How the values were obtained:
[1] = tested on: Staphylococcus aureus; test: Radial diffusion bactericidal assay, Staphylococcus aureus; format: cell-based; settings: radial diffusion; PROBIT analysis; S. aureus
[2] = tested on: rough mutant E. coli J5 bacteria; test: Radial diffusion bactericidal assay, E. coli J5; format: cell-based; settings: radial diffusion; for pmol added to well to achieve a 30 mm^2 bactericidal zone, E. coli J5: PROBIT analysis, E. coli J5 (rough); for bactericidal activity (in words): E. coli J5
Description: BPI proteolytic fragments produced according to Example 1 were screened for bactericidal effects using rough mutant E. coli J5 bacteria in a radial diffusion assay. Specifically, an overnight culture of E. coli J5 was diluted 1:50 into fresh tryptic soy broth and incubated for 3 hours at 37° C. to attain log phase growth of the culture. Bacteria were then pelleted at 3,000 rpm for 5 minutes in a Sorvall RT6000B centrifuge (Sorvall Instruments, Newton, Conn.). 5 mL of 10 mM sodium phosphate buffer (pH 7.4) was added and the preparation was re-pelleted. […] The bacteria were diluted to 4×10^6 CFU/mL in 10 mL of molten underlayer agarose (at approximately 45° C.) and inverted repeatedly to mix in 15 mL polypropylene tubes conventionally used for this purpose.
The entire contents of such tubes were then poured into a level square petri dish and distributed evenly by rocking the dish side-to-side. […] A series of wells were then punched into the hardened agarose using a sterile 3 mm punch attached to a vacuum apparatus. The punch was sterilized with 100% alcohol and allowed to air dry prior to use to avoid contaminating the bacterial culture.
5 or 10 μL of each of the BPI fragments were carefully pipetted into each well. As a negative control, dilution buffer (pH 8.3) was added to a separate well, and rBPI23 at concentrations of 5 μg/mL and 1 μg/mL were also added as positive controls. Each plate was incubated at 37° C. for 3 hours, and then 10 mL of molten overlayer agarose (at approximately 45° C.) was added into the level petri dish, allowed to harden and incubated overnight at 37° C. […] The bacterial zones were measured with a micrometer.

[3] = tested on: E. coli 0111:B4 (smooth) bacteria; test: Radial diffusion bactericidal assay, E. coli 0111:B4; format: cell-based; settings: radial diffusion; PROBIT analysis; E. coli O111:B4 (smooth)
[4] = 3H-heparin binding assay (affinity and capacity); settings: for heparin binding capacity: direct heparin binding assay; for Heparin Capacity: heparin bound at saturation; for cpm ^3H-Heparin bound: 100 picomoles of each fragment per well, saturating 3H-heparin 20 μg/mL, mean of duplicate wells ± range
Description: Briefly, each fragment was added to wells of a 96-well microtiter plate having a polyvinylidene difluoride membrane (Immunobilon-P, Millipore, Bedford, Mass.) disposed at the bottom of the wells. […] Positive control wells contained varying amounts of rBPI23. […] DuPont-NEN, Wilmington, Del.) were made in the blocking buffer and incubated in the BPI peptide-containing wells for one hour at 4° C. The unbound heparin was aspirated and the wells were washed three times with blocking buffer, dried and removed for quantitation in a liquid scintillation counter (Model 1217, LKB, Gaithersburg, Md.). Although BSA in the blocking buffer did show a low affinity and capacity to bind heparin, this was considered physiologically irrelevant and the background was routinely subtracted from the test compound signal.

[5] = read-out: Kd of heparin binding

Substance | pmol added to well to achieve a 30 mm^2 bactericidal zone, S. aureus [1] | pmol added to well to achieve a 30 mm^2 bactericidal zone, E. coli J5 [2] | pmol added to well to achieve a 30 mm^2 bactericidal zone, E. coli O111:B4 [3] | Heparin Capacity [4] | pKd ([4]; read-out: Heparin Affinity) | also measured
IKISGKWKAQKRWLK [BPI.141] | b (no detectable activity up to 5 μg/well) | 2,809.51 pmol | b (no detectable activity up to 5 μg/well) | – | – | –
magainin II amide [reference compound] | – | – | – | 453.7 ng | 5.50 | heparin binding capacity [4]: 437.7 ng heparin/2 μg peptide; pKd [4, 5]: 5.50
IKISGKAβ-(1-naphthyl)KAQAβ-(1-naphthyl)RFLK (IKISGK[1Nal]KAQ[1Nal]RFLK) [BPI.112] | b (no detectable activity up to 5 μg/well) | 1,485.92 pmol | b (no detectable activity up to 5 μg/well) | – | – | –
KSKVGWLISLFHKK [BPI.104] | 27,933.64 pmol | 385.85 pmol | 1,376.42 pmol | – | – | –
KSKVKWLIQLWHKK [BPI.124] | b (no detectable activity up to 5 μg/well) | 91.23 pmol | 3,916.32 pmol | – | – | –
KSKVGWLIQLFWKK [BPI.107] | b (no detectable activity up to 5 μg/well) | 384.67 pmol | 4,665.64 pmol | – | – | –
C3: CNBr fragment of rBPI23, residues 71-100 (VPNVGLKFSISNANIKISGKWKAQKRFLKM; CNBr fragment; UniProt P17213 102-131, looked up, fragment) | – | – | – | – | – | cpm ^3H-Heparin bound [4]: 81,655 ± 3,163 cpm
GTAALQKELKRIKIP [BPI.54] | – | b (no detectable activity up to 5 μg/well) | b (no detectable activity up to 5 μg/well) | 64.3 ng | 6.62 | bactericidal activity (in words) [2]: little or no bactericidal activity; heparin binding capacity (in words) [4]: low heparin binding capacity
CIKISGKWKAQKRPLC [BPI.57] | b (no detectable activity up to 5 μg/well) | 514.03 pmol | b (no detectable activity up to 5 μg/well) | – | – | –
C2: CNBr fragment of rBPI23, residues 57-70 (DIREFQLPSSQISM; CNBr fragment; UniProt P17213 88-101, looked up, fragment) | – | – | – | – | – | cpm ^3H-Heparin bound [4]: 6,262 ± 182 cpm
KSKVGWLIQFFHKK [BPI.113] | b (no detectable activity up to 5 μg/well) | 270.66 pmol | 8,671.73 pmol | – | – | –
C4: CNBr fragment of rBPI23, residues 101-111 (SGNFDLSIEGM; CNBr fragment; UniProt P17213 132-142, looked up, fragment) | – | – | – | – | – | cpm ^3H-Heparin bound [4]: 4,686 ± 4 cpm
KSKVGWLIQLFAβ-(1-naphthyl)KK (KSKVGWLIQLF[1Nal]KK) [BPI.110] | b (no detectable activity up to 5 μg/well) | 812.33 pmol | 7,952.04 pmol | – | – | –
A2: Asp-N fragment of rBPI23, residues 15-38 (DYASQQGTAALQKELKRIKIPDYS; Asp-N fragment; UniProt P17213 46-69, looked up, fragment) | – | – | – | – | – | cpm ^3H-Heparin bound [4]: 3,042 ± 162 cpm
KSKVGWLITLFHKK [BPI.106] | b (no detectable activity up to 5 μg/well) | 427.12 pmol | 3,413.80 pmol | – | – | –
A3: Asp-N fragment of rBPI23, residues 39-56 (DSFKIKHLGKGHYSFYSM; UniProt P17213 70-87, looked up, fragment) | – | – | – | – | – | cpm ^3H-Heparin bound [4]: 8,664 ± 128 cpm
KSKVGWLIQLAβ-(1-naphthyl)HKK (KSKVGWLIQL[1Nal]HKK) [BPI.109] | b (no detectable activity up to 5 μg/well) | 308.60 pmol | 44,875.41 pmol | – | – | –
KSKVKAβ-(1-naphthyl)LIQLFHKK (KSKVK[1Nal]LIQLFHKK) [BPI.116] | b (no detectable activity up to 5 μg/well) | 73.82 pmol | 37,539.59 pmol | – | – | –
KSKVWLIQLFHKK [BPI.11] | – | 638.30 pmol | b (no detectable activity up to 5 μg/well) | 290.5 ng | 6.13 | –
CIKISGKWKAQKRFLKC [BPI.65 (red.)] | – | – | – | 279.6 ng | 6.67 | bactericidal activity (in words) [2]: highly bactericidal; heparin binding capacity (in words) [4]: extremely high heparin capacity
Limulus anti-LPS factor [LALF, reference compound] | – | – | – | 195.3 ng | 5.89 | heparin binding capacity [4]: 195.3 ng heparin/2 μg peptide; pKd [4, 5]: 5.89
CIKISGKWKAQKRFLKC [BPI.65 (ox.)] | – | – | – | 190.6 ng | 6.80 | –
85-99: 15-mer pin-synthesized peptide corresponding to amino acids 85-99 of BPI, with cyclo(lysylprolyl) moiety on the carboxyl-terminus (IKISGKWKAQKRFLK-{cyclo(lysylprolyl)}; UniProt P17213 116-130, looked up, fragment) | – | – | – | – | – | bactericidal activity (in words) [2]: found to have bactericidal activity
IKISGKWKAAARFLK [BPI.45] | – | 1,301.80 pmol | 4,849.00 pmol | 160.7 ng | 6.82 | –
C6: CNBr fragment of rBPI23, residues 171-196 (NSQVCEKVTNSVSSELQPYFQTLPVM; CNBr fragment; UniProt P17213 202-227, looked up, fragment) | – | – | – | – | – | cpm ^3H-Heparin bound [4]: 26,204 ± 844 cpm
Polymyxin B peptide [PMB Peptide, reference compound] | – | – | – | 58.01 ng | 6.51 | heparin binding capacity [4]: 58.0 ng heparin/2 μg peptide
Cecropin A (KWKLFKKIEKVGQNIRDGIIKAGPAVAVVGQATQIAK; ends and bridges not checked; UniProt P01507 27-63, looked up) [antibacterial peptide of lepidopteran insects (Sigma), reference compound] | – | – | – | 242.0 ng | 6.40 | heparin binding capacity [4]: 242 ng heparin/2 μg peptide; pKd [4, 5]: 6.40
SVHVHISKSKVGWLIQLFHKKIESALRNK [BPI.12] | – | 524.80 pmol | b (no detectable activity up to 5 μg/well) | 231.5 ng | 6.55 | –
